In brackets after ≈: the same amount, converted by molar mass. Read-outs that look alike come from different tables or passages of the source.
Tests used:
Format in all cases: cell-based
[1] = system: Herpes simplex-Viren; assay: Plaque inhibition test (Plaquehemmungstest, agar diffusion test); details: read-out: Hemmhofdurchmesser (mm)
From the text: Der Plaquehemmungstest (Agardiffusionstest) wird nach der Methode von E. C. Herrmann et al., 1960 (6) durchgeführt. Auch bei diesem Test werden virusinfizierte tierische Zellkulturen verwendet. In diesem Fall wird in Petrischalen durch ein mit Hilfe von Agar verfestigtes Medium das unkontrollierte Ausbreiten der Viren verhindert. Es kommt zu einer lokal begrenzten Zerstörung der Zellen, die nach einer Färbung als Löcher im Zellrasen erkennbar ist. Die Testsubstanzen werden auf Filterpapierblättchen aufgetragen und auf das feste Medium aufgelegt. In einem Bereich um diese Blättchen werden durch die virustatische Wirkung der Testsubstanz die Zellen geschützt und es entstehen so kreisförmige Hemmzonen. Die Größe der Hemmzone kann als Maß für die virustatische Wirksamkeit ausgewertet werden.
Durchführung: Ein Monolayer von MK2-, HeLa-, Rita-Zellen oder einer anderen geeigneten Zellinie wird in einer Petrischale mit Viren infiziert, so daß eine große Zahl von einzelnen Plaques entsteht. Nach einer Bindung von 45 Minuten bei Zimmertemperatur wird der Zellrasen einmal mit phosphatgepufferter Kochsalzlösung gewaschen und mit einer Agar-Oberschicht versehen. Auf diese Agarschicht werden Filterpapierblättchen (10 mm Durchmesser) gelegt, die mit einer Lösung der Testsubstanz getränkt sind. Nach 48 bis 72 Stunden Bebrütung bei 37 °C in CO2-Atmosphäre (5 %) wird eine zweite Oberschicht darübergegeben, die den Vitalfarbstoff Tetrazoliumchlorid enthält. Nach weiteren 24 Stunden Bebrütung wird der Hemmhofdurchmesser, unterteilt in "toxische Zone" und "therapeutische Zone", in mm ausgemessen.

[2] = system: Herpes simplex-Viren; assay: Dye test (Farbtest, crystal violet): virustatic effect in virus-infected cell cultures; details: for Extinktion bei 546 nm Hela-Zellen mit Herpes-Virus: virus control 0,144, cell control 0,648
From the text: (§1) Der Farbtest, wie von Armstrong, 1971 (5) beschrieben, beruht darauf, daß die durch die Viren zerstörten Zellen nicht mehr gefärbt werden können. Je höher der Anteil an intakten Zellen nach der Inkubation mit dem jeweiligen Virus durch die virustatische Wirkung einer Substanz ist, um so mehr Farbstoff wird gebunden. Der Farbstoff läßt sich aus den gefärbten Zellen extrahieren und seine Menge kann in einem Photometer, z. B. bei Verwendung von Kristallviolett bei 546 nm, gemessen werden. Damit erlaubt der Test meßbare und reproduzierbare Angaben sowohl über die virustatische, wie auch durch Parallelversuche mit Zellkulturen ohne Viren über die cytotoxische Wirkung von Substanzen.
(§2) Durchführung: 10 mg der Testsubstanz wurden in 10 ml Ethylalkohol gelöst. Unter Verwendung des Mediums für die Zellkultur wurde eine Verdünnungsreihe mit Konzentrationen von 1,56 µg/ml bis 25 µg/ml Testsubstanz eingestellt. Diese Lösungen werden auf 24 Stunden alte MK2-, HeLa-, Rita-Zellen oder andere geeignete Zellen gegeben, nachdem diese vorher 45 Minuten zur Infektion mit einer Suspension von Viren überschichtet worden waren. Zur Prüfung der Cytotoxizität werden Parallelansätze ohne Viruszugabe analog mit den verschiedenen Verdünnungsstufen der Prüfsubstanz überschichtet. Die Versuchsansätze mit Virus und Testsubstanz bzw. nur der Testsubstanz werden 72 Stunden bei 37 °C bebrütet. Anschließend werden die Zellen fixiert und für 15 Minuten mit Kristallviolettlösung gefärbt. Nach Spülen mit Wasser wird der an die Zellen gebundene Farbstoff mit Ethanol extrahiert und in einem Photometer die Extinktion bei 546 nm (Absorption für Kristallviolett) gemessen.
Zur Auswertung werden die Extinktionen und auch die Konzentration mit einem Zellschutz von 50 % berechnet.
Falls die Testsubstanz keine wesentlichen cytotoxischen Eigenschaft besitzt, kann die antivirale Schutzwirkung nach nach folgender Formel in Prozent berechnet werden: (E3 - E2)/(E1 - E2)x 100 [formula] E1 = Extinktion der Zellkontrolle E2 = Extinktion der Viruskontrolle E3 = Extinktion der Versuchsansätze mit Virus und Alizarin

[3] = system: Hela-Zellen; assay: Dye test (Farbtest), parallel runs without virus: cytotoxicity; details: for Extinktion bei 546 nm Hela-Zellen: cells without virus, 72 h
From the text: as §1, §2

[4] = system: Cytomegalie-Viren; assay: Plaque reduction test (Plaquereduktionstest) in human foreskin fibroblasts; details: Fibroblast, plaque count versus virus control, read-out: Hemmung (%)
From the text: Für die Prüfung der Wirksamkeit gegenüber Cytomegalie-Viren (CMV) werden mit diesen Viren infizierte menschliche Vorhautfibroblasten eingesetzt. Nach der Inkubation werden die entstandenen Plaques angefärbt und ausgezählt. Zur Auswertung wird die Plaquezahl unter dem Einfluß einer definierten Substanzmenge mit der Viruskontrolle verglichen.
Mit einer ähnlichen Versuchsanordnung wie im Plaquehemmungstest kann die Wirkung des Alizarins gegen Cytomegalie-Viren bestimmt werden (siehe Plaquereduktionstest, Methode 3). Die Untersuchung für das Cytomegalie-Virus in einer Zellinie von menschlichen Vorhautfibroblasten ergab die in Tabelle II angegebenen Werte für die Hemmung im Vergleich zur Viruskontrolle. Zur Auswertung wurden hier die gebildeten Plaques gezählt und im Vergleich zur Viruskontrolle ausgewertet (siehe Tabelle II). Tabelle II

[5] = system: HHV 6 (Human herpes-Virus Typ 6); assay: Virus replication in human lymphocyte cultures, passages in presence of substance; details: 10 µg/ml, after three passages
From the text: In weiteren Versuchen wurde die Wirkung von Alizarin auf die Vermehrung von HHV 6 (Human herpes-Virus Typ 6) untersucht. Diese Viren lassen sich aus dem Blut von immunsupprimierten Patienten mit Leukämie, Lymphomen oder Aids sowie von Kindern mit Roseola infantum isolieren.
Die Testung erfolgte in menschlichen Lymphocytenkulturen.

[6] = Substanzmenge 10 µg/ml pro Testblättchen, Rita-Zellen
[7] = Substanzmenge 20 µg/ml pro Testblättchen, Rita-Zellen
[8] = Substanzmenge 40 µg/ml pro Testblättchen, Rita-Zellen

O=C1c2ccc(O)cc2C(=O)c2ccc(O)cc21 [Anthraflavinsäure (5), 2,6-Dihydroxyanthrachinon]
zone of inhibition at 10 µg/mL [1, 6]: 9 mm
zone of inhibition at 20 µg/mL [1, 7]: 13 mm
zone of inhibition at 40 µg/mL [1, 8]: 15 mm

O=C1c2cccc(O)c2C(=O)c2c(O)cccc21 [Chrysazin (4), 1,8-Dihydroxyanthrachinon]
zone of inhibition at 10 µg/mL [1, 6]: 8 mm
zone of inhibition at 20 µg/mL [1, 7]: 12 mm
zone of inhibition at 40 µg/mL [1, 8]: 16 mm

O=C1c2ccccc2C(=O)c2c1cc(S(=O)(=O)O)c(O)c2O [Alizarinsulfonsäure (2), 9,10-Dihydro-3,4-dihydroxy-9,10-dioxo-2-anthracensulfonsäure.Mononatriumsalz]
zone of inhibition at 10 µg/mL [1, 6]: 10 mm
zone of inhibition at 20 µg/mL [1, 7]: 12 mm
zone of inhibition at 40 µg/mL [1, 8]: 19 mm

O=C1c2ccccc2C(=O)c2c(O)ccc(O)c21 [Chinizarin (3), 1,4-Dihydroxyanthrachinon]
zone of inhibition at 10 µg/mL [1, 6]: 11 mm
zone of inhibition at 20 µg/mL [1, 7]: 13 mm
zone of inhibition at 40 µg/mL [1, 8]: 16 mm

O=C1c2ccccc2C(=O)c2c1ccc(O)c2O [Alizarin, 1,2-Dihydroxy-9,10-anthracendion]
Extinktion bei 546 nm Hela-Zellen mit Herpes-Virus ([2]; 25 µg/ml, 72 h): 0,235
Extinktion bei 546 nm Hela-Zellen mit Herpes-Virus ([2]; 3,125 µg/ml, 72 h): 0,329
Extinktion bei 546 nm Hela-Zellen mit Herpes-Virus ([2]; 1,56 µg/ml, 72 h): 0,206
Extinktion bei 546 nm Hela-Zellen mit Herpes-Virus ([2]; 6,25 µg/ml, 72 h): 0,403
Extinktion bei 546 nm Hela-Zellen mit Herpes-Virus ([2]; 12,5 µg/ml, 72 h): 0,338
inhibition at 3.125 µg/mL ([2]; 72 h, 3.125 µg/mL, Hela-Zellkulturen, read-out: Zellschutz (%)): 37%
inhibition at 25 µg/mL ([2]; 72 h, 25 µg/ml, Hela-Zellkulturen, read-out: Zellschutz (%)): 18%
inhibition at 1.56 µg/mL ([2]; 72 h, 1,56 µg/ml, Hela-Zellkulturen, read-out: Zellschutz (%)): 12%
inhibition at 6.25 µg/mL ([2]; 72 h, 6,25 µg/ml, Hela-Zellkulturen, read-out: Zellschutz (%)): 51%
inhibition at 12.5 µg/mL ([2]; 72 h, 12,5 µg/ml, Hela-Zellkulturen, read-out: Zellschutz (%)): 38%
EC50 ([2]; experiment of Tabelle I a, read-out: Konzentration, die einen Zellschutz von 50 % bewirkt): 5.96 µg/mL (≈ 24.8 µM)
IC50 ([2]; in presence of 10 % Serum, read-out: 50 % Hemmwert): 11.3 µg/mL
IC50 ([2]; mean of four experiments, read-out: Mittelwert für eine 50 %ige Hemmung der Virusvermehrung): 4.87 µg/mL (≈ 20.3 µM)
Extinktion bei 546 nm Hela-Zellen ([3]; 25 µg/ml): 0,328
Extinktion bei 546 nm Hela-Zellen ([3]; 3,125 µg/ml): 0,693
Extinktion bei 546 nm Hela-Zellen ([3]; 1,56 µg/ml): 0,655
Extinktion bei 546 nm Hela-Zellen ([3]; 6,25 µg/ml): 0,634
Extinktion bei 546 nm Hela-Zellen ([3]; 12,5 µg/ml): 0,510
cytotoxische Wirkung ([3]; at the higher concentrations of Tabelle I a / I b): schwache cytotoxische Wirkung
inhibition at 5 µg/mL ([4]; 5 µg/ml): 10%
inhibition at 10 µg/mL ([4]; 10 µg/ml): 60%
inhibition at 15 µg/mL ([4]; 15 µg/ml): 100%
inhibition at 20 µg/mL ([4]; 20 µg/ml): 100%
Virus nachweisbar in den Zellen [5]: kein Virus mehr nachweisbar
zone of inhibition at 10 µg/mL [1]: 14 mm
zone of inhibition at 20 µg/mL [1]: 18 mm
zone of inhibition at 40 µg/mL [1]: 20 mm

From EP0454058B1, “Use of anthraquinone derivatives in the prophylaxis and treatment of viral diseases” (LOMAPHARM Rudolf Lohmann GmbH KG Pharmazeutische Fabrik, priority 1990, dated 1991)
